In US10065990B2, “Cyclic peptide compound, and preparation method, pharmaceutical composition and use thereof” (HANGZHOU GUANYU BIO-MEDICAL CO., LTD, priority 2013, dated 2018):
Read-outs that look alike come from different tables or passages of the source.

Tests used:
HDAC7 = molecular target: T1, HDAC7 (Homo sapiens, UniProt Q8WUI4); experiment: HDAC biochemical activity measurement (fluorescent substrate deacetylation);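 also: fluorogenic deacetylation assay using acetyl-lysine substrate at 20 µM, enzyme and compound incubated 30 min at 37 °C, then developer added, fluorescence read at 360/460 nm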; conditions: HDAC7; 37° C. 30 minutes
T1 sequence (Q8WUI4 1-952): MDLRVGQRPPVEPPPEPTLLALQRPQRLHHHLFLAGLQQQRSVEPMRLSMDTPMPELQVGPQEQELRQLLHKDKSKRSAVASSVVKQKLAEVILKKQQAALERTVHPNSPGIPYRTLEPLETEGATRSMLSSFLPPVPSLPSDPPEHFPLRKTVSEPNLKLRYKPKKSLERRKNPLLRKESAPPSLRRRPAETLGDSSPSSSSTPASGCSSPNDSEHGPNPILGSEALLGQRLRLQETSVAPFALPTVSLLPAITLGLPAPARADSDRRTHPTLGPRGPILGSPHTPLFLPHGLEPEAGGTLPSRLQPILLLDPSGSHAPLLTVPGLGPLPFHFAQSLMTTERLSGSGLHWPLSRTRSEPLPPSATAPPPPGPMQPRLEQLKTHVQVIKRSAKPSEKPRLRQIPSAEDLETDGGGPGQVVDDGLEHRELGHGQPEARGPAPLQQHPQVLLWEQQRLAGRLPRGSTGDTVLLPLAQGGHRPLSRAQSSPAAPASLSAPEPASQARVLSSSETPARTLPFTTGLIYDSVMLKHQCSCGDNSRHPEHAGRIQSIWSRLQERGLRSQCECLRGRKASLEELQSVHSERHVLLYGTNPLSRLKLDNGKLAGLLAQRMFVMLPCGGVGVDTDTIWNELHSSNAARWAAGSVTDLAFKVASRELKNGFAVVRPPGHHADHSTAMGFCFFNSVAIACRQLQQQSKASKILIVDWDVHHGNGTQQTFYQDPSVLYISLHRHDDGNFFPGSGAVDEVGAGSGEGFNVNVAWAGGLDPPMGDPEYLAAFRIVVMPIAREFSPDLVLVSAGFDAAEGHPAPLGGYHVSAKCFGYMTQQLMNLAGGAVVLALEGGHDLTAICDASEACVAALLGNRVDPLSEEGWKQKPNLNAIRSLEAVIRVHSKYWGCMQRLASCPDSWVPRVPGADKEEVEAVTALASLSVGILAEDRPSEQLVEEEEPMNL

[1] = system: KBM-5 (human chronic myelogenous leukemia); experiment: MTT cancer cell growth inhibition; type: cell-based; conditions: Homo sapiens, KBM5, 72 h, MTT, 72 hours incubation, KBM-5 cells; read-out: GI50 KBM-5
Outline: (§1)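 Absorbance at 570 nm of DMSO-dissolved formazan, formed during a 4 h MTT incubation, served as the viability measure. Cells had been exposed 72 h to drug at 10^−5–10^−10 M final; GI50 was calculated from these readings.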

[2] = system: K562 (human leukemia cells); experiment: MTT cancer cell growth inhibition; type: cell-based; conditions: Homo sapiens, K562, 72 h, MTT, 72 hours incubation, K562 cells; read-out: GI50 K562
Outline: as §1

[3] = system: N-87 (human gastric cancer cells); experiment: MTT cancer cell growth inhibition; type: cell-based; conditions: Homo sapiens, 72 h, MTT, 72 hours incubation, N-87 cells; read-out: GI50 N-87
Outline: as §1

[4] = system: MOLT-4 (human acute lymphoblastic leukemia cells); experiment: MTT cancer cell growth inhibition; type: cell-based; conditions: Homo sapiens, MOLT-4, 72 h, MTT, 72 hours incubation, read-out: GI50 Mol
Outline: as §1

[5] = system: DU145 (human prostate cancer cells); experiment: MTT cancer cell growth inhibition; type: cell-based; conditions: Homo sapiens, DU-145, 72 h, MTT, 72 hours incubation, read-out: GI50 Du1
Outline: as §1

[6] = system: lncap (prostate cancer cells); experiment: MTT cancer cell growth inhibition; type: cell-based; conditions: Homo sapiens, LNCaP, 72 h, MTT, 72 hours incubation, read-out: GI50 lnca
Outline: as §1

[7] = system: KBM5-T315I (human chronic myelogenous leukemia); experiment: MTT cancer cell growth inhibition; type: cell-based; conditions: Homo sapiens, 72 h, MTT, 72 hours incubation, KBM5-T315I cells; read-out: GI50 KBM5-T315I
Outline: as §1

[8] = system: Hela (human cervical cancer cells); experiment: MTT cancer cell growth inhibition; type: cell-based; conditions: Homo sapiens, HeLa, 72 h, MTT, 72 hours incubation, read-out: GI50 Hela
Outline: as §1

[9] = system: PANC-1 (Pac-1, human pancreatic cancer cells); experiment: MTT cancer cell growth inhibition; type: cell-based; conditions: Homo sapiens, PANC-1, 72 h, MTT, 72 hours incubation, read-out: GI50 PAN
Outline: as §1

[10] = system: MCF-7 (human breast cancer cells); experiment: MTT cancer cell growth inhibition; type: cell-based; conditions: Homo sapiens, MCF7, 72 h, 72 hours incubation, read-out: GI50 MCF
Outline: as §1

[11] = system: A549 (human lung cancer cells); experiment: MTT cancer cell growth inhibition; type: cell-based; conditions: Homo sapiens, A549, 72 h, MTT, 72 hours incubation, read-out: GI50 A54
Outline: as §1

[12] = system: U937 (human leukemia cells); experiment: MTT cancer cell growth inhibition; type: cell-based; conditions: Homo sapiens, U-937, 72 h, MTT, 72 hours incubation, read-out: GI50 U93
Outline: as §1

[13] = system: SGC-7901 (human gastric cancer cells); experiment: MTT cancer cell growth inhibition; type: cell-based; conditions: Homo sapiens, SGC-7901, 72 h, MTT, 72 hours incubation, SGC-7901 cells; read-out: GI50 SGC-7901
Outline: as §1

[14] = system: Huh-7 (human hepatoma cells); experiment: MTT cancer cell growth inhibition; type: cell-based; conditions: Homo sapiens, Huh-7, 72 h, MTT, 72 hours incubation, Huh-7 cells; read-out: GI50 Huh-7
Outline: as §1

[15] = system: MDA-MB-231 (breast cancer cells); experiment: MTT cancer cell growth inhibition; type: cell-based; conditions: Homo sapiens, MDA-MB-231, 72 h, read-out: GI50 MDA-MB-231, MTT, 72 hours incubation, MDA-MB-231 cells
Outline: as §1

[16] = system: Bel-7402 (human hepatoma cells); experiment: MTT cancer cell growth inhibition; type: cell-based; conditions: Homo sapiens, Bel-7402, 72 h, MTT, 72 hours incubation, Bel-7402 cells; read-out: GI50 Bel-7402
Outline: as §1

[17] = system: HT1080 (human fibrosarcoma cells); experiment: MTT cancer cell growth inhibition; type: cell-based; conditions: Homo sapiens, HT-1080, 72 h, MTT, 72 hours incubation, read-out: GI50 HT1
Outline: as §1

[18] = system: H1975 (non-small cell lung adenocarcinoma); experiment: MTT cancer cell growth inhibition; type: cell-based; conditions: Homo sapiens, NCI-H1975, 72 h, MTT, 72 hours incubation, H1975 cells; read-out: GI50 H1975
Outline: as §1

[19] = system: HCC827 (human non-small cell lung cancer cells); experiment: MTT cancer cell growth inhibition; type: cell-based; conditions: Homo sapiens, HCC827, 72 h, MTT, 72 hours incubation, HCC827 cells; read-out: GI50 HCC827
Outline: as §1

[20] = system: BGC-823 (human gastric cancer cells); experiment: MTT cancer cell growth inhibition; type: cell-based; conditions: Homo sapiens, BGC-823, 72 h, MTT, 72 hours incubation, read-out: GI50 BG
Outline: as §1

IC50 HDAC7 (HDAC7)	GI50 [1]	GI50 [2]	GI50 [3]	GI50 [4]	GI50 [5]	GI50 [6]	GI50 [7]	GI50 [8]	GI50 [9]	GI50 [10]	GI50 [11]	GI50 [12]	GI50 [13]	GI50 [14]	GI50 [15]	GI50 [16]	GI50 [17]	GI50 [18]	GI50 [19]	SMILES	also measured
no activity	36 nM	47 nM	42 nM	100 nM	50 nM	80 nM	51 nM	80 nM	70 nM	50 nM	60 nM	60 nM	95 nM	21 nM	31 nM	34 nM	100 nM	24 nM	48 nM	C/C=C1\NC(=O)c2cc(F)cc(n2)CNC(=O)C[C@@H](/C=C/CCS)OC(=O)[C@H](C)NC1=O [Compound 113]	GI50 [20]: 70 nM
no activity	38 nM	46 nM	48 nM	100 nM	80 nM	30 nM	26 nM	50 nM	30 nM	30 nM	110 nM	110 nM	61 nM	91 nM	32 nM	49 nM	30 nM	55 nM	32 nM	C/C=C1\NC(=O)c2ccc(F)c(n2)CNC(=O)C[C@@H](/C=C/CCS)OC(=O)[C@H](CCCCNC(=O)OCC2c3ccccc3-c3ccccc32)NC1=O [Compound 122]	GI50 [20]: 20 nM
no activity	17 nM	81 nM	27 nM	–	–	–	29 nM	–	–	–	–	–	67 nM	35 nM	51 nM	42 nM	–	78 nM	47 nM	C/C=C1\NC(=O)c2cc(SC)cc(n2)CNC(=O)C[C@@H](/C=C/CCSC(C)=O)OC(=O)[C@H](Cc2cccc3ccccc23)NC1=O [Compound 199]	GI50 ([4]; MOLT-4 cells): 30 nM; GI50 ([5]; DU145 cells): 50 nM; GI50 ([6]; lncap cells): 40 nM; GI50 ([8]; Hela cells): 30 nM; GI50 ([9]; PANC-1 cells): 10 nM; GI50 ([10]; MCF-7 cells): 80 nM; GI50 ([11]; A549 cells): 40 nM; GI50 ([12]; U937 cells): 30 nM; GI50 ([17]; HT1080 cells): 40 nM; GI50 ([20]; BGC-823 cells): 90 nM
no activity	38 nM	48 nM	19 nM	–	–	–	21 nM	–	–	–	–	–	57 nM	33 nM	79 nM	27 nM	–	46 nM	55 nM	CSc1ccc2nc1C(=O)NC(=C(C)C)C(=O)N[C@@H](C(C)C)C(=O)O[C@H](/C=C/CCSC(C)=O)CC(=O)NC2 [Compound 207]	GI50 ([4]; MOLT-4 cells): 10 nM; GI50 ([5]; DU145 cells): 30 nM; GI50 ([6]; lncap cells): 50 nM; GI50 ([8]; Hela cells): 20 nM; GI50 ([9]; PANC-1 cells): 50 nM; GI50 ([10]; MCF-7 cells): 40 nM; GI50 ([11]; A549 cells): 30 nM; GI50 ([12]; U937 cells): 40 nM; GI50 ([17]; HT1080 cells): 30 nM; GI50 ([20]; BGC-823 cells): 30 nM
no activity	81 nM	41 nM	52 nM	30 nM	40 nM	30 nM	29 nM	80 nM	70 nM	20 nM	30 nM	40 nM	36 nM	35 nM	35 nM	74 nM	70 nM	43 nM	74 nM	C/C=C1\NC(=O)c2nc(ccc2F)CNC(=O)C[C@@H](/C=C/CCSC(=O)CCCCCCC)OC(=O)[C@H](Cc2ccccc2)NC1=O [Example 69]	GI50 [20]: 50 nM
no activity	21 nM	32 nM	39 nM	–	–	–	41 nM	–	–	–	–	–	42 nM	75 nM	35 nM	63 nM	–	70 nM	29 nM	C/C=C1\NC(=O)c2ccc(SC)c(n2)CNC(=O)C[C@@H](/C=C/CCSC(=O)CCCCCCC)OC(=O)[C@H](C(C)C)NC1=O [Compound 149]	GI50 ([4]; MOLT-4 cells): 80 nM; GI50 ([5]; DU145 cells): 60 nM; GI50 ([6]; lncap cells): 50 nM; GI50 ([8]; Hela cells): 50 nM; GI50 ([9]; PANC-1 cells): 30 nM; GI50 ([10]; MCF-7 cells): 60 nM; GI50 ([11]; A549 cells): 20 nM; GI50 ([12]; U937 cells): 20 nM; GI50 ([17]; HT1080 cells): 80 nM; GI50 ([20]; BGC-823 cells): 30 nM
